“And” between values parts separate entries of the source, which are not always exact repeats. Equal entries are not always repeated. The source made the active and inactive calls. How the calls were made is not given here. Where a SMILES comes first, the peptide text is derived from it.
Each molecule was assayed on ADSC/ECFC co-culture, VEGF-stimulated, CD31 tube area (assay: inhibition of endothelial tube formation, dose response, imaging, VEGF stimulation, CD31 staining, tube area, IC50 (AID 1117337)).
For `C#C[C@]1(O)CC[C@@H]2[C@@H]3CCC4=CCCC[C@@H]4[C@H]3C(=C)C[C@@]21CC`, the IC50 was > 10 µM (inactive).
In the case of `O=C(Nc1ccc([N+](=O)[O-])cc1)Nc1ccc([N+](=O)[O-])cc1`, the IC50 is reported as > 10 µM (inactive).
`O=C(Nc1ccc(S(=O)(=O)N2CCOCC2)cc1)c1cc(Cl)ccc1NS(=O)(=O)c1ccc(Cl)s1` was tested, and the IC50 was > 10 µM (inactive).
With `O=S(c1cc(Cl)cc(Cl)c1O)c1cc(Cl)cc(Cl)c1O` the IC50 was > 10 µM (inactive).
In the case of `CCc1cccc(N(C)C(N)=Nc2cccc3ccccc23)c1`, the IC50 is reported as > 10 µM (inactive).
With `O=C1NCCN1CCN1CCC(c2cn(-c3ccc(F)cc3)c3ccc(Cl)cc23)CC1` the IC50 was > 10 µM (inactive).
With `NC(=O)[C@@H]1CSSCCC(=O)N[C@@H](CCCCN=C(N)N)C(=O)NCC(=O)N[C@@H](CC(=O)O)C(=O)N[C@@H](Cc2c[nH]c3ccccc23)C(=O)N2CCC[C@H]2C(=O)N1` (HELM PEPTIDE1{[O=C(CCS[*:3])[*:2]].[N=C(N)NCCCC[C@H](N[*:1])C(=O)[*:2]].G.D.W.P.C.[am]}$PEPTIDE1,PEPTIDE1,1:R3-7:R3$$$V2.0) the IC50 was > 10 µM (inactive).
Molecule `Clc1ccc(C(Cn2ccnc2)OCc2ccsc2Cl)c(Cl)c1` (centres undefined) has an IC50 of 5 µM.
In the case of `O=C1CC[C@H](C(=O)N2CCCCC2)N1`, the IC50 is reported as > 10 µM (inactive).
Molecule `CC(C)OC(=O)OCOP(=O)(CO[C@H](C)Cn1cnc2c(N)ncnc21)OCOC(=O)OC(C)C` has an IC50 of 3.84 µM.
For `O=C1c2ccccc2C(=O)C1C(=O)C(c1ccccc1)c1ccccc1`, the IC50 was > 10 µM (inactive).
With `NC(=O)C1(N2CCCCC2)CCN(CCCN2c3ccccc3CCc3ccc(Cl)cc32)CC1` the IC50 was 3.4 µM.
`c1ccc2c(c1)Sc1ccccc1N2CC1CN2CCC1CC2` (centres undefined) was tested, and the IC50 was 9.44 µM (inactive).
Molecule `CCCCCCCCCCCCCCCCCCNC(=O)OC1CCN(C(=O)OC[C@H](COC(=O)N(Cc2cccc[n+]2CC)C(=O)c2ccccc2OC)OC)CC1` has an IC50 of 1.5 µM.
`COCCOC(=O)C1=C(C)NC(C)=C(C(=O)OC/C=C/c2ccccc2)C1c1cccc([N+](=O)[O-])c1` (centres undefined) was tested, and the IC50 was 6.42 µM (inactive).
For `Clc1cc(Cl)c(OCC#CI)cc1Cl`, the IC50 was > 10 µM (inactive).
`CS(=O)(=O)CCNCc1ccc(-c2ccc3ncnc(Nc4ccc(OCc5cccc(F)c5)c(Cl)c4)c3c2)o1` was tested, and the IC50 was > 10 µM (inactive).
`CC1=C(C(=O)OC(C)C)C(c2cccc([N+](=O)[O-])c2)C(C(=O)OC2CN(C(c3ccccc3)c3ccccc3)C2)=C(N)N1` (centres undefined) showed an IC50 of 3.58 µM.
With `O=C(CCCN1CCC(O)(c2cccc(C(F)(F)F)c2)CC1)c1ccc(F)cc1` the IC50 was > 10 µM (inactive).
With `COCc1c(C(C)C)nc(C(C)C)c(/C=C/[C@@H](O)C[C@@H](O)CC(=O)O)c1-c1ccc(F)cc1` the IC50 was 0.0894 µM.
Molecule `COC(=O)Nc1nc2ccc(Sc3ccccc3)cc2[nH]1` has an IC50 of 0.207 µM.
With `C/C(=C(/OCCOc1ccc(Cl)cc1)c1ccc(Cl)cc1Cl)n1ccnc1` the IC50 was 5.84 µM (inactive).
For `Cc1cc(OI)c(C(C)C)cc1-c1cc(C(C)C)c(OI)cc1C`, the IC50 was > 10 µM (inactive).
In the case of `Cn1cc(S(C)=O)c(=O)c2ccc(F)cc21` (centres undefined), the IC50 is reported as > 10 µM (inactive).
With `CC[C@@]1(O)C(=O)OCc2c1cc1n(c2=O)Cc2c-1nc1ccccc1c2/C=N/OC(C)(C)C` the IC50 was 0.002 µM.
With `CNC(=O)Oc1cccc2ccccc12` the IC50 was > 10 µM (inactive).
For `Cc1ccc(C(=O)Oc2ccc(C(O)CNC(C)(C)C)cc2OC(=O)c2ccc(C)cc2)cc1` (centres undefined), the IC50 was > 10 µM (inactive).
With `COc1ccccc1OCCNCC(O)COc1cccc2[nH]c3ccccc3c12` (centres undefined) the IC50 was > 10 µM (inactive).
For `O=c1[nH]sc2cc(Cl)ccc12`, the IC50 was > 10 µM (inactive).
In the case of `CCOP(=S)(OCC)SCSc1ccc(Cl)cc1`, the IC50 is reported as > 10 µM (inactive).
`CC(=O)O[C@H]1C[C@H](O[C@H]2[C@@H](O)C[C@H](O[C@@H]3[C@@H](O)C[C@H](O[C@H]4CC[C@@]5(C)[C@H](CC[C@@H]6[C@H]5C[C@@H](O)[C@]5(C)[C@@H](C7=CC(=O)OC7)CC[C@]65O)C4)O[C@@H]3C)O[C@@H]2C)O[C@H](C)[C@H]1O[C@@H]1O[C@H](CO)[C@@H](O)[C@H](O)[C@@H]1O` showed an IC50 of 0.0702 µM.
With `CC(=O)NC(=O)c1ccccc1O` the IC50 was > 10 µM (inactive).
In the case of `COc1ccc(Cc2nccc3cc(OC)c(OC)cc23)cc1OC`, the IC50 is reported as 7.8 µM (inactive).
For `NC(=O)c1cccnc1`, the IC50 was > 10 µM (inactive).
With `COP(=S)(OC)Oc1ccc(Sc2ccc(OP(=S)(OC)OC)cc2)cc1` the IC50 was > 10 µM (inactive).
For `O=C(O)CCCc1ccc(N(CCCl)CCCl)cc1`, the IC50 was 1.24 µM.
Molecule `COc1c(C)c2c(c(O)c1C/C=C(\C)CCC(=O)OCCN1CCOCC1)C(=O)OC2` has an IC50 of 1.26 µM.
In the case of `CCCCCCCCCCCCNCCNCCNCC(=O)O`, the IC50 is reported as 6.04 µM (inactive).
In the case of `CC[N+](CC)(CC)CCOc1ccc(/C=C/c2ccccc2)cc1`, the IC50 is reported as > 10 µM (inactive).
For `[O-][n+]1ccccc1SSc1cccc[n+]1[O-]`, the IC50 was 0.719 µM.
`CCCCC[C@@H](O)CC[C@H]1[C@@H]2Cc3cccc(OCC(=O)O)c3C[C@@H]2C[C@@H]1O` was tested, and the IC50 was > 10 µM (inactive).
`Cc1ccc(Nc2nccc(N(C)c3ccc4c(C)n(C)nc4c3)n2)cc1S(N)(=O)=O` showed an IC50 of 0.0465 µM.
In the case of `Oc1c(Br)cc(Br)c2cccnc12`, the IC50 is reported as > 10 µM (inactive).
`O=C(O)CCC(=O)OC[C@@H](NC(=O)C(Cl)Cl)[C@H](O)c1ccc([N+](=O)[O-])cc1` was tested, and the IC50 was > 10 µM (inactive).
`OC[C@H]1O[C@@H](n2cnc3c(=S)nc[nH]c32)[C@H](O)[C@@H]1O` showed an IC50 of 1.42 µM.
For `CCOC(=O)C=C(C)C=CC[C@@H](C)CCCC(C)C`, the IC50 was > 10 µM (inactive).
`C[S+](CC[C@H](N)C(=O)O)C[C@H]1O[C@@H](n2cnc3c(N)ncnc32)[C@H](O)[C@H]1O` (some centres undefined) was tested, and the IC50 was > 10 µM (inactive).
In the case of `CSc1ccc(/C=C2/C(C)=C(CC(=O)O)c3cc(F)ccc32)cc1`, the IC50 is reported as > 10 µM (inactive).
With `CC[C@]1(O)C[C@@H]2CN(CCc3c([nH]c4ccccc34)[C@@](C(=O)OC)(c3cc4c(cc3OC)N(C)[C@H]3[C@@](O)(C(=O)OC)[C@H](OC(C)=O)[C@]5(CC)C=CCN6CC[C@]43[C@@H]65)C2)C1` the IC50 was 0.0026 µM and 0.0023 µM.
In the case of `Cc1cc(OCCOCC[N+](C)(C)Cc2ccccc2)ccc1C(C)(C)CC(C)(C)C`, the IC50 is reported as > 10 µM (inactive).
In the case of `COc1ccc([C@@H]2Sc3ccccc3NC(=O)[C@@H]2O)cc1`, the IC50 is reported as > 10 µM (inactive).
`CCCCCCCC[N+](C)(C)CCCCCCCC` was tested, and the IC50 was 1.39 µM.
In the case of `O=C1NCN(c2ccccc2)C12CCN(CCCC(c1ccc(F)cc1)c1ccc(F)cc1)CC2`, the IC50 is reported as > 10 µM (inactive).
`OC[C@@H](O)[C@H](O)[C@H](O)[C@@H](O)CO` was tested, and the IC50 was > 10 µM (inactive).
For `COc1ccc(/C=C/C(=O)c2ccc(OC)cc2OC)cc1`, the IC50 was 6.66 µM (inactive).
`CC(=O)[C@]1(O)Cc2c(O)c3c(c(O)c2[C@@H](O[C@H]2C[C@H](N)[C@H](O)[C@H](C)O2)C1)C(=O)c1ccccc1C3=O` gave an IC50 of 0.0208 µM.
With `Nc1nc(F)nc2c1ncn2[C@@H]1O[C@H](CO)[C@@H](O)[C@@H]1O` the IC50 was 8.45 µM (inactive).
`CC(=O)Nc1ccn(C2COC(COC(=O)c3ccccc3)O2)c(=O)n1` (centres undefined) showed an IC50 of 2.33 µM.
With `O=C(Nc1ccc(Br)cc1)c1cc(Br)c(Br)s1` the IC50 was > 10 µM (inactive).
Molecule `Oc1c(I)cc(I)c2cccnc12` has an IC50 of 2.39 µM.
`CCCCCCCCCCCC(=O)[O][Sn]([CH2]CCC)([CH2]CCC)[O]C(=O)CCCCCCCCCCC` gave an IC50 of 2.01 µM.
`Clc1ccc(CSC(Cn2ccnc2)c2ccc(Cl)cc2Cl)cc1` (centres undefined) gave an IC50 of 2.13 µM.
Molecule `COc1cc(-c2ccc(=O)[nH]n2)ccc1OC(F)F` has an IC50 of 1.22 µM.
For `CC[C@@H]([C@H](C)O)n1ncn(-c2ccc(N3CCN(c4ccc(OC[C@@H]5CO[C@@](Cn6cncn6)(c6ccc(F)cc6F)C5)cc4)CC3)cc2)c1=O`, the IC50 was 6.46 µM (inactive).
`Cc1cc(O)c2ccccc2c1O` showed an IC50 of 4.89 µM.
`CCCCCCCCCCCCCC[N+](C)(C)C` gave an IC50 of 1.9 µM.
For `C/C=C(/C(=C/C)c1ccc(OC(C)=O)cc1)c1ccc(OC(C)=O)cc1`, the IC50 was > 10 µM (inactive).
For `O=c1c(-c2ccc(O)cc2)coc2cc(O)cc(O)c12`, the IC50 was > 10 µM (inactive).
In the case of `CCCCCCOC(=O)c1cccnc1`, the IC50 is reported as > 10 µM (inactive).
In the case of `CO[C@H]1O[C@@H]2O[C@@]3(C)CC[C@H]4[C@H](C)CC[C@@H]([C@@H]1C)[C@@]24OO3`, the IC50 is reported as > 10 µM (inactive).
In the case of `CC[C@]1(O)C[C@H]2CN(CCc3c([nH]c4ccccc34)[C@@](C(=O)OC)(c3cc4c(cc3OC)N(C=O)[C@H]3[C@@](O)(C(=O)OC)[C@H](OC(C)=O)[C@]5(CC)C=CCN6CC[C@]43[C@@H]65)C2)C1`, the IC50 is reported as 0.0065 µM.
With `O=C(Nc1ccc(Oc2ccc(Cl)cc2)c(Cl)c1)c1cc(I)cc(I)c1O` the IC50 was > 10 µM (inactive).
With `CC(CC=O)CCCC(C)(C)O` (centres undefined) the IC50 was > 10 µM (inactive).
In the case of `COC(=O)N[C@H](C(=O)N[C@@H](Cc1ccccc1)[C@@H](O)CN(Cc1ccc(-c2ccccn2)cc1)NC(=O)[C@@H](NC(=O)OC)C(C)(C)C)C(C)(C)C`, the IC50 is reported as > 10 µM (inactive).
In the case of `O=NN(CCCl)C(=O)NC1CCCCC1`, the IC50 is reported as > 10 µM (inactive).
`CCCCCCNC(=O)n1cc(F)c(=O)[nH]c1=O` gave an IC50 of 4.49 µM.
Work on `CCCCCCCCCCCCCCCC[N+](C)(C)CCN(Cc1ccc(OC)cc1)c1ncccn1` yielded an IC50 of 3.07 µM.
In the case of `Cc1ccc(Nc2c(F)cccc2Cl)c(CC(=O)O)c1`, the IC50 is reported as > 10 µM (inactive).
`C[C@H]1O[C@@H](O[C@H]2[C@@H](O)C[C@H](O[C@H]3[C@@H](O)C[C@H](O[C@H]4CC[C@@]5(C)[C@H](CC[C@@H]6[C@@H]5CC[C@]5(C)[C@@H](C7=CC(=O)OC7)CC[C@]65O)C4)O[C@@H]3C)O[C@@H]2C)C[C@H](O)[C@@H]1O` was tested, and the IC50 was 0.011 µM.
`Oc1c(I)cc(Cl)c2cccnc12` was tested, and the IC50 was > 10 µM (inactive).
In the case of `COC(=O)Nc1nc2ccc(C(=O)c3ccccc3)cc2[nH]1`, the IC50 is reported as 0.37 µM.
Work on `CC(C)(C)CC(C)(C)c1ccc(OCCOCC[N+](C)(C)Cc2ccccc2)cc1` yielded an IC50 of 3.74 µM.
In the case of `Cc1c(C)c2c(c(C)c1OC(=O)CCC(=O)O)CC[C@@](C)(CCC[C@H](C)CCC[C@H](C)CCCC(C)C)O2`, the IC50 is reported as > 10 µM (inactive).
Molecule `Clc1ccc(CCC(Cn2ccnc2)Sc2c(Cl)cccc2Cl)cc1` (centres undefined) has an IC50 of 3.53 µM.
In the case of `CCCCC(=O)O[C@H]1CC[C@H]2[C@@H]3CCc4cc(O)ccc4[C@@H]3CC[C@]12C`, the IC50 is reported as > 10 µM (inactive).
With `OCCN1CCN(CCCN2c3ccccc3Sc3ccc(C(F)(F)F)cc32)CC1` the IC50 was > 10 µM (inactive).
With `O=C(Nc1ccc([N+](=O)[O-])cc1Cl)c1cc(Cl)ccc1O` the IC50 was 0.112 µM.
For `CN[C@@H]1C[C@@H](c2ccc(Cl)c(Cl)c2)c2ccccc21`, the IC50 was > 10 µM (inactive).
For `O=[N+]([O-])c1ccc(Oc2ccc(N=C=S)cc2)cc1`, the IC50 was 3.72 µM.
